Assay results taken from PubChem BioAssay AID1963837 (Molecular Pharmacology Branch, DTP, NCI, 2024).

Test system: 843126-344-R-J1-PDC complex spheroid viability
Experiment: Anticancer human tumor 843126-344-R-J1-PDC patient-derived melanoma cell line growth inhibition [POLQ]
Conditions: for IC50: curve of first compound; for viability, T/C: stronger effect = lower value; active means viability on the fitted dose curve at most 10% of control; inactive means the rest
How it was run: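 Patient-derived tumour cells were co-cultured with HUVEC and mesenchymal stem cells as multicellular spheroids at 37 °C. They were treated with POLQ inhibitors (novobiocin, ART-558, RP6685) alone or combined with other agents. Top concentrations were at or near clinical Cmax (otherwise 10 microM; SN-38 at 1 microM), decreasing in half-log steps.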
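Wherever viability, T/C is given: spheroids exposed to drugs for seven days before readout.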

CC(=O)O[C@H]1C(=O)[C@@]2(C)[C@H]([C@H](OC(=O)c3ccccc3)[C@]3(O)C[C@H](OC(=O)[C@H](O)[C@@H](NC(=O)c4ccccc4)c4ccccc4)C(C)=C1C3(C)C)[C@]1(OC(C)=O)CO[C@@H]1C[C@@H]2O + Nc1ccc(C#CCN(C(=O)Cc2ncc(C(F)(F)F)cc2C(F)(F)F)c2ccc(F)cc2)nn1
inactive: viability, T/C (second compound 0.0316 µM, first compound 0.00949 µM) 65.6% | viability, T/C (second compound 0.0316 µM, first compound 0.03 µM) 58.7% | viability, T/C (second compound 0.0316 µM, first compound 0.0949 µM) 65% | viability, T/C (second compound 0.0316 µM, first compound 0.3 µM) 65.8% | viability, T/C (second compound 0.0316 µM, first compound 0.949 µM) 68.5% | viability, T/C (second compound 0.0316 µM, first compound 3 µM) 69.6% | viability, T/C (second compound 0.1 µM, first compound 0.00949 µM) 65.6% | viability, T/C (second compound 0.1 µM, first compound 0.03 µM) 53.5% | viability, T/C (second compound 0.1 µM, first compound 0.0949 µM) 56.7% | viability, T/C (second compound 0.1 µM, first compound 0.3 µM) 61.5% | viability, T/C (second compound 0.1 µM, first compound 0.949 µM) 78.6% | viability, T/C (second compound 0.1 µM, first compound 3 µM) 61.2% | viability, T/C (second compound 0.316 µM, first compound 0.00949 µM) 68.1% | viability, T/C (second compound 0.316 µM, first compound 0.03 µM) 53.4% | viability, T/C (second compound 0.316 µM, first compound 0.0949 µM) 70.7% | viability, T/C (second compound 0.316 µM, first compound 0.3 µM) 61.6% | viability, T/C (second compound 0.316 µM, first compound 0.949 µM) 64.8% | viability, T/C (second compound 0.316 µM, first compound 3 µM) 73.5% | viability, T/C (second compound 1 µM, first compound 0.00949 µM) 67.2% | viability, T/C (second compound 1 µM, first compound 0.03 µM) 57.1% | viability, T/C (second compound 1 µM, first compound 0.0949 µM) 62.2% | viability, T/C (second compound 1 µM, first compound 0.3 µM) 55.6% | viability, T/C (second compound 1 µM, first compound 0.949 µM) 62.8% | viability, T/C (second compound 1 µM, first compound 3 µM) 62.7% | viability, T/C (second compound 3.16 µM, first compound 0.00949 µM) 69.3% | viability, T/C (second compound 3.16 µM, first compound 0.03 µM) 62.1% | viability, T/C (second compound 3.16 µM, first compound 0.0949 µM) 54.9% | viability, T/C (second compound 3.16 µM, first compound 0.3 µM) 59.8% | viability, T/C (second compound 3.16 µM, first compound 0.949 µM) 63.7% | viability, T/C (second compound 3.16 µM, first compound 3 µM) 61.5% | viability, T/C (second compound 10 µM, first compound 0.00949 µM) 65.5% | viability, T/C (second compound 10 µM, first compound 0.03 µM) 57.6% | viability, T/C (second compound 10 µM, first compound 0.0949 µM) 61.5% | viability, T/C (second compound 10 µM, first compound 0.3 µM) 61.3% | viability, T/C (second compound 10 µM, first compound 0.949 µM) 60.2% | viability, T/C (second compound 10 µM, first compound 3 µM) 61.8%
> 3000 nM: IC50 (second compound 0.0316 µM) | IC50 (second compound 0.1 µM) | IC50 (second compound 0.316 µM) | IC50 (second compound 1 µM) | IC50 (second compound 3.16 µM) | IC50 (second compound 10 µM)

CC[C@@]1(O)C(=O)OCc2c1cc1n(c2=O)Cc2cc3c(CN(C)C)c(O)ccc3nc2-1 + COC1C(OC(N)=O)C(O)C(Oc2ccc3c(O)c(NC(=O)c4ccc(O)c(CC=C(C)C)c4)c(=O)oc3c2C)OC1(C)C
96 nM: IC50 (second compound 0.1 µM)
76.9 nM: IC50 (second compound 1 µM)
inactive: viability, T/C (second compound 0.0316 µM, first compound 0.000316 µM) 94.8% | viability, T/C (second compound 0.0316 µM, first compound 0.001 µM) 89.7% | viability, T/C (second compound 0.0316 µM, first compound 0.00316 µM) 104% | viability, T/C (second compound 0.0316 µM, first compound 0.01 µM) 110% | viability, T/C (second compound 0.0316 µM, first compound 0.0316 µM) 57.3% | viability, T/C (second compound 0.0316 µM, first compound 0.1 µM) 52.5% | viability, T/C (second compound 0.1 µM, first compound 0.000316 µM) 95.7% | viability, T/C (second compound 0.1 µM, first compound 0.001 µM) 104% | viability, T/C (second compound 0.1 µM, first compound 0.00316 µM) 123% | viability, T/C (second compound 0.1 µM, first compound 0.01 µM) 91.4% | viability, T/C (second compound 0.1 µM, first compound 0.0316 µM) 78.2% | viability, T/C (second compound 0.1 µM, first compound 0.1 µM) 48.7% | viability, T/C (second compound 0.316 µM, first compound 0.000316 µM) 114% | viability, T/C (second compound 0.316 µM, first compound 0.001 µM) 99.2% | viability, T/C (second compound 0.316 µM, first compound 0.00316 µM) 91.1% | viability, T/C (second compound 0.316 µM, first compound 0.01 µM) 70.9% | viability, T/C (second compound 0.316 µM, first compound 0.0316 µM) 91.3% | viability, T/C (second compound 0.316 µM, first compound 0.1 µM) 46.6% | viability, T/C (second compound 1 µM, first compound 0.000316 µM) 84.5% | viability, T/C (second compound 1 µM, first compound 0.001 µM) 83.8% | viability, T/C (second compound 1 µM, first compound 0.00316 µM) 102% | viability, T/C (second compound 1 µM, first compound 0.01 µM) 82.4% | viability, T/C (second compound 1 µM, first compound 0.0316 µM) 61.5% | viability, T/C (second compound 1 µM, first compound 0.1 µM) 46.6% | viability, T/C (second compound 3.16 µM, first compound 0.000316 µM) 92.3% | viability, T/C (second compound 3.16 µM, first compound 0.001 µM) 96.3% | viability, T/C (second compound 3.16 µM, first compound 0.00316 µM) 101% | viability, T/C (second compound 3.16 µM, first compound 0.01 µM) 91% | viability, T/C (second compound 3.16 µM, first compound 0.0316 µM) 63.2% | viability, T/C (second compound 3.16 µM, first compound 0.1 µM) 54% | viability, T/C (second compound 10 µM, first compound 0.000316 µM) 95.5% | viability, T/C (second compound 10 µM, first compound 0.001 µM) 109% | viability, T/C (second compound 10 µM, first compound 0.00316 µM) 110% | viability, T/C (second compound 10 µM, first compound 0.01 µM) 119% | viability, T/C (second compound 10 µM, first compound 0.0316 µM) 74.1% | viability, T/C (second compound 10 µM, first compound 0.1 µM) 54%
> 100 nM: IC50 (second compound 0.0316 µM) | IC50 (second compound 0.316 µM) | IC50 (second compound 3.16 µM) | IC50 (second compound 10 µM)
